Results from ChEMBL document CHEMBL1153813, “Synthesis of biotinylated OSW-1” (Bioorg Med Chem Lett, 2009).

Key:
Assay type in all cases: functional, cell-based
A-375 = assay: Antiproliferative activity against human A375 cells after 72 hrs by MTT assay; conditions: A-375, 72 h
PANC-1 = assay: Antiproliferative activity against human PANC1 cells after 72 hrs by MTT assay; conditions: PANC-1, 72 h
ASPC1 = assay: Antiproliferative activity against human AsPC1 cells after 72 hrs by MTT assay; conditions: ASPC1, 72 h
[1] = Antiproliferative activity against human WM35 cells after 72 hrs by MTT assay; conditions: WM35, 72 h
HL-60 = assay: Antiproliferative activity against human HL60 cells after 72 hrs by MTT assay; conditions: HL-60, 72 h

IC50 (A-375): 0.2 nM
IC50 (PANC-1): 1.1 nM
IC50 (ASPC1): 0.7 nM
IC50 (HL-60): 0.1 nM
Structure (SMILES): COc1ccc(C(=O)O[C@H]2[C@H](O[C@@H]3[C@@H](O)[C@H](O[C@H]4C[C@H]5[C@@H]6CC=C7C[C@@H](OC(=O)CCCCCCCNC(=O)CCCC[C@@H]8SC[C@@H]9NC(=O)N[C@@H]98)CC[C@]7(C)[C@H]6CC[C@]5(C)[C@@]4(O)[C@H](C)C(=O)CCC(C)C)OC[C@@H]3O)OC[C@@H](O)[C@@H]2O)cc1
IC50 [1]: 0.2 nM
